Where a name gives a salt, the structure may show the parent alone.

This passage reports EC50 results from patent US9556139B2, “6-substituted phenoxychroman carboxylic acid derivatives” (Array BioPharma Inc., priority 2008, dated 2017).

Chain of human DP2 (Q9Y5Y4 whole entry): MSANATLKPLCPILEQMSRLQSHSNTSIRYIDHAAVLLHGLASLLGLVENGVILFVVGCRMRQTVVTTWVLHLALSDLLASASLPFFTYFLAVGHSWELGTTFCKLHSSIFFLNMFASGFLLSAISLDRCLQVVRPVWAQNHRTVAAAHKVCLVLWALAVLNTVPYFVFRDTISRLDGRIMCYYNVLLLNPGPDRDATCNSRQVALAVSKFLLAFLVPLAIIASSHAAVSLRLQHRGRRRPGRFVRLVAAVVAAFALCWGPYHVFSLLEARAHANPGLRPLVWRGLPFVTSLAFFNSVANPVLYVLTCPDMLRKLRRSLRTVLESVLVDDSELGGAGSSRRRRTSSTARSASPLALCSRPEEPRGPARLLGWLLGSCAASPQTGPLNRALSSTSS

The target in one assay is human DP2 (Homo sapiens (Human), UniProt Q9Y5Y4). Kind of assay: DP-2 Binding Inhibition Assay (3H-PGD2 binding to membranes of K562 cells expressing DP2). To be noted: EC50 (nM) 4% HSA, inhibition of 3H-PGD2 binding, 4% HSA. The procedure:
DP-2 Binding Inhibition Assay
The coding sequence of human DP2 was introduced into the human Leukemic cell line K562 by electroporation and stable clones expressing DP2 were obtained by limiting dilution followed by cell surface staining with a rat monoclonal antibody specific for human DP2. Membranes were prepared from one of these DP2 expressing clones and used to determine the ability of compounds of the present invention to inhibit binding of prostaglandin D2 (PGD2) to its receptor DP2 in the presence of one or more of the following serum protein concentrations, 0.1% BSA, 1% HSA or 4% HSA, by the following procedure. Membranes (1.25 μg/well for 0.1% BSA and 6 μg/well for 1% or 4% HSA) were mixed with ^3H-labeled PGD2 and various concentrations of test compounds in 150 μL of binding buffer (50 mM Tris-HCl, pH 7.4, 40 mM MgCl2, 0.1% bovine serum albumin, 0.1% NaN3) in 96-well U-bottom polypropylene plates. After incubation for 60 minutes at room temperature, the assay was transferred to a filtration plate (#MAFB; Millipore Corporation, Bedford, Mass.), and washed three times with binding buffer. Radioactivity was measured by a scintillation counter (TopCount; PerkinElmer Life Sciences, Boston, Mass.). Nonspecific binding was determined by incubations in the presence of 1 μM unlabeled PGD2 or 5 μM of a known DP2 antagonist. EC50 values for inhibition of binding were determined for each compound tested from the inflexion point of a standard 4-parameter logistical curve fitted to the values obtained.
Usually EC50 stands for the concentration at which the effect is half-maximal. `O=C(NCCc1ccccc1)c1ccc(Oc2cc3c(cc2Cl)C(C(=O)O)CCO3)cc1` (centres unmarked) [Example 12, Sodium 6-chloro-7-(4-(phenethylcarbamoyl)phenoxy)chroman-4-carboxylate] came in with an EC50 of 794 nM.

Still in this assay, the particulars now being: read-out: EC50 (Nm) 1% HSA; inhibition of 3H-PGD2 binding, 1% HSA.
Take `O=C(NCCc1ccc(Cl)cc1)c1ccc(Oc2cc(Cl)c3c(c2)OCCC3C(=O)O)cc1` (centres unmarked) [Example 218, 5-chloro-7-(4-(4-chlorophenethylcarbamoyl)phenoxy)chroman-4-carboxylic acid]: the concentration for a half-maximal effect (EC50) was found to be 144 nM.

In the case of `N#Cc1cc2c(cc1Oc1ccc(C(=O)NC3Cc4ccc(Cl)cc4C3)cc1)OCCC2C(=O)O` (centres unmarked) [Example 73, 7-(4-(5-Chloro-2,3-dihydro-1H-inden-2-ylcarbamoyl)phenoxy)-6-cyanochroman-4-carboxylic acid], the half-maximal effective concentration (EC50) is 42.4 nM.

Regarding `N#Cc1cc2c(cc1Oc1ccc(C(=O)NCCc3ccc(C(F)(F)F)cc3)cc1)OCCC2C(=O)O` (centres unmarked) [Example 50, 7-(4-((4-(Trifluoromethyl)phenethyl)carbamoyl)phenoxy)-6-cyano-3,4-dihydro-2H-chromene-4-carboxylic acid], the EC50 amounted to 11 nM.

For the molecule `N#Cc1cc2c(cc1Oc1ccc(C(=O)NCCc3ccc4ccccc4c3)cc1)OCCC2C(=O)O` (centres unmarked) [Example 56, 6-Cyano-7-(4-(2-(naphthalen-2-yl)ethylcarbamoyl)phenoxy)chroman-4-carboxylic acid], the EC50 is 14.2 nM.

Turning to `N#Cc1cc2c(cc1Oc1ccc(C(=O)Nc3ccc4c(c3)CNCC4)cc1)OCCC2C(=O)O` (centres unmarked) [Example 45, 6-Cyano-7-(4-(1,2,3,4-tetrahydroisoquinolin-7-ylcarbamoyl)phenoxy)chroman-4-carboxylic acid hydrochloride], the 50% effective concentration (EC50) was found to be 1370 nM.

Staying with this assay, now noted: read-out: EC50 (nM) 4% HSA; inhibition of 3H-PGD2 binding, 4% HSA.
Turning to `O=C(NCC/C=C\c1ccc(Cl)cc1Cl)c1ccc(Oc2cc3c(cc2Cl)C(C(=O)O)CCO3)cc1` (centres unmarked) [Example 18, Sodium (Z)-6-chloro-7-(4-(4-(2,4-dichlorophenyl)but-3-enylcarbamoyl)phenoxy)chroman-4-carboxylate], the concentration for a half-maximal effect (EC50) is 502 nM.

As for `O=C(NCCc1cccc(Cl)c1Cl)c1ccc(Oc2cc3c(cc2Cl)C(C(=O)O)CCO3)cc1` (centres unmarked) [Example 139, Sodium 6-chloro-7-(4-(2,3-dichlorophenethylcarbamoyl)phenoxy)chroman-4-carboxylate], the EC50 was 226 nM.

For `O=C(NC1CCCC(c2ccc(Cl)cc2)C1)c1ccc(Oc2cc3c(cc2Cl)C(C(=O)O)CCO3)cc1` (centres unmarked) [Example 164, Sodium 6-chloro-7-(4-(3-(4-chlorophenyl)cyclohexylcarbamoyl)phenoxy)chroman-4-carboxylate], the EC50 worked out at 183 nM.

On to `COc1cc(OC)c(CCNC(=O)c2ccc(Oc3cc4c(cc3Cl)C(C(=O)O)CCO4)cc2)c(OC)c1` (centres unmarked) [Example 222, 6-chloro-7-(4-(2,4,6-trimethoxyphenethylcarbamoyl)phenoxy)chroman-4-carboxylic acid], for which the 50% effective concentration (EC50) amounted to 118 nM.

Turning to `CC(C)Oc1cccc(NC(=O)c2ccc(Oc3cc4c(cc3C#N)C(C(=O)O)CCO4)cc2)c1` (centres unmarked) [Example 135, 6-Cyano-7-(4-(3-isopropoxyphenylcarbamoyl)phenoxy)chroman-4-carboxylic acid], the EC50 was 205 nM.

On to `O=C(NCCOc1ccccc1)c1ccc(Oc2cc3c(cc2Cl)C(C(=O)O)CCO3)cc1` (centres unmarked) [Example 220, 6-chloro-7-(4-(2-phenoxyethylcarbamoyl)phenoxy)chroman-4-carboxylic acid], for which the concentration for a half-maximal effect (EC50) was more than 2000 nM.

As for `Cc1cccc(-c2cccc(NC(=O)c3ccc(Oc4cc5c(cc4C#N)C(C(=O)O)CCO5)cc3)c2)c1C` (centres unmarked) [Example 109, 6-Cyano-7-(4-(2′,3′-dimethylbiphenyl-3-ylcarbamoyl)phenoxy)chroman-4-carboxylic acid], the EC50 was 104 nM.

In the case of `CSc1cc(Cl)ccc1CCNC(=O)c1ccc(Oc2cc3c(cc2Cl)C(C(=O)O)CCO3)cc1` (centres unmarked) [Example 229, 6-chloro-7-(4-(4-chloro-2-(methylthio)phenethylcarbamoyl)phenoxy)chroman-4-carboxylic acid], the EC50 stood at 67.5 nM.

Consider `O=C(NCCc1ccc(Cl)cc1Cl)c1ccc(Oc2c(C3CC3)cc3c(c2C2CC2)OCCC3C(=O)O)cc1` (centres unmarked) [Example 40, Sodium 6,8-dicyclopropyl-7-(4-(2,4-dichlorophenethylcarbamoyl)phenoxy)chroman-4-carboxylate], for which the EC50 came out at 42.2 nM.

As to `O=C(NCCc1c(Cl)cccc1Cl)c1ccc(Oc2cc3c(cc2Cl)C(C(=O)O)CCO3)cc1` (centres unmarked) [Example 80, Sodium 6-chloro-7-(4-(2,6-dichlorophenethylcarbamoyl)phenoxy)chroman-4-carboxylate], the EC50 stood at 165 nM.

Take `COc1ccc(CCNC(=O)c2ccc(Oc3cc4c(cc3Cl)C(C(=O)O)CCO4)cc2)c(Cl)c1` (centres unmarked) [Example 100, Sodium 6-chloro-7-(4-(2-chloro-4-methoxyphenethylcarbamoyl)phenoxy)chroman-4-carboxylate]: the EC50 came to 619 nM.

With `O=C(NCCC1CC1)c1ccc(Oc2cc3c(cc2Cl)C(C(=O)O)CCO3)cc1` (centres unmarked) [Example 25, Sodium 6-chloro-7-(4-(2-cyclopropylethylcarbamoyl)phenoxy)chroman-4-carboxylate], the concentration giving a half-maximal response (EC50) is 3330 nM.

`COc1cc(CCNC(=O)c2ccc(Oc3cc4c(cc3C#N)C(C(=O)O)CCO4)cc2)ccc1Cl` (centres unmarked) [Example 133, 7-(4-(4-Chloro-3-methoxyphenethylcarbamoyl)phenoxy)-6-cyanochroman-4-carboxylic acid]: the half-maximal effective concentration (EC50) came to 625 nM.

On to `Cc1ccccc1CCNC(=O)c1ccc(Oc2cc3c(cc2Cl)C(C(=O)O)CCO3)cc1` (centres unmarked) [Example 20, Sodium 6-chloro-7-(4-(2-methylphenethylcarbamoyl)phenoxy)chroman-4-carboxylate], for which the EC50 is 759 nM.

Turning to `O=C(NCCc1ccc(Cl)cc1Cl)c1ccc(Oc2cc3c(cc2C2CC2)C(C(=O)O)CCO3)cc1` (centres unmarked) [Example 42, Sodium 6-cyclopropyl-7-(4-(2,4-dichlorophenethylcarbamoyl)phenoxy)chroman-4-carboxylate], the concentration for a half-maximal effect (EC50) stood at 73.8 nM.

Regarding `O=C(NCCc1cc(Cl)cc(Cl)c1)c1ccc(Oc2cc3c(cc2Cl)C(C(=O)O)CCO3)cc1` (centres unmarked) [Example 148, Sodium 6-chloro-7-(4-(3,5-dichlorophenethylcarbamoyl)phenoxy)chroman-4-carboxylate], the half-maximal effective concentration (EC50) was determined as 196 nM.

As for `O=C(NC1CCC(c2ccccc2)C1)c1ccc(Oc2cc3c(cc2Cl)C(C(=O)O)CCO3)cc1` (centres unmarked) [Example 165, 6-chloro-7-(4-(3-phenylcyclopentylcarbamoyl)phenoxy)chroman-4-carboxylic acid], the half-maximal effective concentration (EC50) was 401 nM.

As to `Cc1cc(Cl)ccc1CCNC(=O)c1ccc(Oc2cc3c(cc2Cl)C(C(=O)O)CCO3)cc1` (centres unmarked) [Example 27, Sodium 6-chloro-7-(4-(4-chloro-2-methylphenethylcarbamoyl)phenoxy)chroman-4-carboxylate], the 50% effective concentration (EC50) is 216 nM.

As to `O=C(NCCc1ccc(Cl)cc1OCC1CC1)c1ccc(Oc2cc3c(cc2Cl)C(C(=O)O)CCO3)cc1` (centres unmarked) [Example 199, sodium 6-chloro-7-(4-(4-chloro-2-(cyclopropyl-methoxy)phenethylcarbamoyl)phenoxy)chroman-4-carboxylate], the EC50 was found to be 111 nM.

Take `Cc1cccc(CCNC(=O)c2ccc(Oc3cc4c(cc3Cl)C(C(=O)O)CCO4)cc2)c1` (centres unmarked) [Example 146, Sodium 6-chloro-7-(4-(3-methylphenethylcarbamoyl)phenoxy)chroman-4-carboxylate]: the EC50 is 608 nM.
